{
  "source": "patent US20080279775A1",
  "about": "“Benztropinamine Analogs as Dopamine Uptake Inhibitors” (priority 2005, published 2008)",
  "key": {"[1]": {"target": "T1, DAT (Rattus norvegicus, UniProt P23977)", "T1 construct": "their brains removed to an ice-cooled dish for dissection of the caudate putamen; from tissue; host or cells: rat caudate putamen membranes (fresh homogenates)", "T1 sequence (P23977 whole entry)": "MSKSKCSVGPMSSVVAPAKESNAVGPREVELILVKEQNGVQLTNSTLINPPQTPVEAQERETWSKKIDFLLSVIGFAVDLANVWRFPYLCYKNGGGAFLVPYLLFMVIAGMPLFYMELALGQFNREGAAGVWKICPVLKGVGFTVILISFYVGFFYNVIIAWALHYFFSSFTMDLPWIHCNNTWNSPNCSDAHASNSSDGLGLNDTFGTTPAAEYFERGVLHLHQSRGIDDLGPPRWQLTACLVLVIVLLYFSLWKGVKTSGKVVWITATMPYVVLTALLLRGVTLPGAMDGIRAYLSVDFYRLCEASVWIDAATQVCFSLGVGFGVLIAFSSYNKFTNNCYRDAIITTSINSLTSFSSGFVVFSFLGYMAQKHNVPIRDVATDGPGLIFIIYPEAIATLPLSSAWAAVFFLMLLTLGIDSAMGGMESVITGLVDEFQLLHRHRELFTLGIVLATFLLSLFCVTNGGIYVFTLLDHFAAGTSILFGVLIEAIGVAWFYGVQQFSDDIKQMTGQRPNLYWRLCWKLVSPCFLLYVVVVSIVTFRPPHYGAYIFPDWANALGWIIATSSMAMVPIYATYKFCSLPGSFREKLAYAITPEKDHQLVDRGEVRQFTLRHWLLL", "assay": "Dopamine transporter binding assay, displacement of [3H]WIN 35,428", "details": "rat caudate-putamen membranes; read-out: DAT [3H]WIN 35,428 Ki ± SEM"}, "[2]": {"target": "T2, SERT (Rattus norvegicus, UniProt P31652)", "T2 construct": "Membranes from frozen rat midbrain were homogenized; from tissue; host or cells: frozen rat midbrain membranes", "T2 sequence (P31652 whole entry)": "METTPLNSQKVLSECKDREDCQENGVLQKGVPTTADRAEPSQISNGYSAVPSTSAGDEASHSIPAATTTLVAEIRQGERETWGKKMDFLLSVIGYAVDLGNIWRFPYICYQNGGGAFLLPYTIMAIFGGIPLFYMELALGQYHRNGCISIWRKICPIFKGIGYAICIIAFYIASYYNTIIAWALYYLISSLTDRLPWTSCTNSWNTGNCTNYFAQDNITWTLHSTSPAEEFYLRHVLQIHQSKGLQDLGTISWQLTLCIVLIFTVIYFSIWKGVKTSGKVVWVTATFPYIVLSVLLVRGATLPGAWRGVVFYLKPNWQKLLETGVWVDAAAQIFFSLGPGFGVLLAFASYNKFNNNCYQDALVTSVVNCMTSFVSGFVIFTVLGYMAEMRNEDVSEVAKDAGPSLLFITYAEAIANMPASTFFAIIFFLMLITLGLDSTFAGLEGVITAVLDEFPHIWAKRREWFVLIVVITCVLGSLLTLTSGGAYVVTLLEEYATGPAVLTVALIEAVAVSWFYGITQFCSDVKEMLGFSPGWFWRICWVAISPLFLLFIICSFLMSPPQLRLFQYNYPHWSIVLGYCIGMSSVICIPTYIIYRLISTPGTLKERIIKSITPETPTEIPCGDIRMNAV", "assay": "[3H]Citalopram binding assay", "method": "(§1) In order to understand the neurochemical and behavioral properties of the compounds of the present invention, exemplary benztropinamine analogs were evaluated for displacement of [^3H]WIN 35,428 (2β-carbomethoxy-3β-(4-fluorophenyl)tropane) binding to the DAT in rat caudate-putamen. These benztropinamine analogs were also evaluated for displacement of radiolabeled ligand binding at the serotonin (SERT) and norepinephrine (NET) transporters as well as the muscarinic m1 receptor (M1), Table 1, infra. The NET over DAT selectivity refers to the Ki ratio. When the Ki ratio is greater than 1, the compound is DAT selective. The DAT selectivities of the analogs over these binding sites are depicted in Table 2.\n[^3H]Citalopram Binding Assay. Membranes from frozen rat midbrain were homogenized in 20 volumes (w/v) of 50 mM Tris containing 120 mM NaCl and 5 mM KCl (pH 7.4 at 25° C.), using a Brinkman Polytron (at setting 6 for 20 sec). The tissue was centrifuged at 20,000×g for 10 min at 4° C. The resulting pellet was resuspended in buffer and recentrifuged. The final pellet was resuspended in cold buffer to a concentration of 15 mg/ml (original wet weight). Ligand binding experiments were conducted in assay tubes containing 0.5 ml of buffer, 1.4 nM [^3H]citalopram (New England Nuclear, Boston Mass.), and 1.5 mg midbrain tissue. The reaction was started with the addition of the tissue and the tubes were incubated for 60 min at 25° C. (room temperature). The incubation was terminated by rapid filtration through Whatman GF/B filters (presoaked in 0.3% polyethylenimine in water) using a Brandel Cell Harvester (Brandel Instruments Gaithersburg, Md.). The filters were washed twice with 5 ml cold buffer, transferred to scintillation vials to which Beckman Ready Safe was added. Nonspecific binding was determined using 10 μM fluoxetine (RBI, Natick, Mass.). Data were analyzed using GraphPad Prism software (San Diego, Calif.)."}, "[3]": {"tested_on": "NET", "type": "binding, rat", "details": "Ki ratio", "method": "as §1\n[^3H]Nisoxetine Binding Assay. Membranes from frozen frontal cortex dissected from male Sprague-Dawley rats (Taconic Labs, Germantown, N.Y.) were homogenized in 20 volumes (w/v) of 50 mM Tris containing 120 mM NaCl and 5 mM KCl (pH 7.4 at 25° C.), using a Brinkman Polytron (at setting 6 for 20 sec). The tissue was centrifuged at 50,000×g for 10 min at 4° C. The resulting pellet was resuspended in buffer and recentrifuged. The final pellet was resuspended in cold buffer to a concentration of 80 mg/ml (original wet weight). Ligand binding experiments were conducted in assay tubes containing 0.5 ml buffer, 0.5 nM [3H]nisoxetine (New England Nuclear, Boston, Mass.), and 8 mg frontal cortex tissue. The reaction was started with the addition of the tissue and the tubes were incubated for 60 min at 0-4° C. The incubation was terminated by rapid filtration through Whatman GF/B filters, presoaked in 0.05% polyethylenimine, using a Brandel Cell Harvester (Brandel Instruments Gaithersburg, Md.). The filters were washed twice with 5 ml cold buffer, transferred to scintillation vials to which Beckman Ready Safe was added. Nonspecific binding was determined using 1 μM desipramine. Data were analyzed using GraphPad Prism software (San Diego, Calif.)."}, "[4]": {"target": "T3, muscarinic M1 receptor (Rattus norvegicus, UniProt P08482)", "T3 construct": "Membranes from frozen rat brains excluding cerebellum were thawed in ice-cold buffer; from tissue; host or cells: frozen rat brain (excluding cerebellum) membranes", "T3 sequence (P08482 1-460)": "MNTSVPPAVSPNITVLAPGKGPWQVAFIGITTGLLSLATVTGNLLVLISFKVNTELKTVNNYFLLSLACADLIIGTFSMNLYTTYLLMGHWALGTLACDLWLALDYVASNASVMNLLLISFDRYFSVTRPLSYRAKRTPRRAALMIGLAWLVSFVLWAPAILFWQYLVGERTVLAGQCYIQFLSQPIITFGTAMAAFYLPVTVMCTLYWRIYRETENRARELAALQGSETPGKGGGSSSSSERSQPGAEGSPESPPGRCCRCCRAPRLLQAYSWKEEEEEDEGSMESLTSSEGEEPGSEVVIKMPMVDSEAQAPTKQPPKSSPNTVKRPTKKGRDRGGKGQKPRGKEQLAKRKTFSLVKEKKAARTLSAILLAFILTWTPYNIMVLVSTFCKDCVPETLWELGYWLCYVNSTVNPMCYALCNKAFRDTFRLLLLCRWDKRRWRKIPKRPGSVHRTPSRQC", "assay": "[3H]Pirenzepine binding assay", "method": "as §1, with “When the Ki ratio is greater than 1, the compound is DAT selective.” left out\n[…] Binding Assay. Membranes from frozen rat brains excluding cerebellum were thawed in ice-cold buffer (10 mM Tris-HCl, 320 mM sucrose, pH 7.4) and homogenized with a Brinkman polytron in a volume of 10 ml/gm of tissue. The homogenate was centrifuged at 1,000×g for 10 min at 4° C. The resulting supernatant was then centrifuged at 10,000×g for 20 min at 4° C. The resulting pellet was resuspended in a volume of 200 mg/ml in 10 mM Tris buffer (pH 7.4). Ligand binding assays were conducted in tubes containing 0.5 ml of buffer (10 mM Tris-HCl, 5 mM MgCl2), 3 nM [^3H]pirenzepine (New England Nuclear, Boston, Mass.), and 20 mg of brain tissue. The reaction was started with the addition of the tissue and the tubes were incubated for 60 min in a 37° C. water bath. The incubation was terminated by the addition of 5 ml of ice-cold buffer (10 mM Tris-HCl, pH 7.4) and rapid filtration through Whatman GF/B glass fiber filter paper (presoaked in 0.5% polyethylenimine) using a Brandel Cell Harvester (Brandel Instruments, Gaithersburg, Md.). The filters were washed twice with 5 ml cold buffer, and transferred to scintillation vials to which absolute ethanol and Beckman Ready Safe was added. Quinuclidinyl benzilate (QNB), 100 μM final concentration, was used to determine non-specific binding. Data were analyzed by using GraphPad Prism software (San Diego, Calif.)."}, "[5]": {"tested_on": "mice", "assay": "Locomotor stimulant effects (activity counts per minute)", "type": "in vivo", "excerpt": "In contrast, 2m produced much more modest increases in activity of around 100 counts per min."}, "[6]": {"tested_on": "rats", "assay": "Cocaine drug discrimination (cocaine-like subjective effects)", "type": "in vivo", "details": "rats trained to discriminate cocaine from vehicle, over the dose range tested, FIGS. 3A and 3B", "excerpt": "FIG. 3A depicts % drug responding as a function of dose; FIG. 3B depicts % control response rate as a function of dose.\nRats were trained to emit one response after an injection of cocaine and a different response after injection of vehicle. Once the subjects were well trained, they act as detectors of cocaine-like subjective effects."}},
  "note": "“And” between values parts separate entries of the source, which are not always exact repeats. Equal entries are not always repeated. “Also recorded” adds a separate entry of the source.",
  "data": [
    {"compound": "O=C(CCN1[C@@H]2CC[C@H]1C[C@@H](NC(c1ccc(F)cc1)c1ccc(F)cc1)C2)Nc1ccccc1", "note": "[Compound 2m]", "values": [
      {"measurement": "Ki", "setting": "[1]", "value": 4.61, "unit": "nM"},
      {"measurement": "Binding selectivity SERT/DAT", "setting": "[2]; Ki ratio", "value": 132},
      {"measurement": "Ki", "setting": "[2]; rat midbrain membranes, read-out: SERT [3H]citalopram Ki ± SEM", "value": "608 ± 41", "unit": "nM"},
      {"measurement": "Binding selectivity NET/DAT", "setting": "[3]", "value": "535 and 536"},
      {"measurement": "Binding selectivity M1/DAT", "setting": "[4]; Ki ratio", "value": 551},
      {"measurement": "Ki", "setting": "[4]; rat brain membranes excluding cerebellum, read-out: M1 [3H]pirenzepine Ki ± SEM", "value": "2540 ± 124", "unit": "nM"},
      {"measurement": "Cocaine-like locomotor stimulant effects", "setting": "[5]", "value": "lacks cocaine-like locomotor stimulant effects"},
      {"measurement": "Locomotor activity", "setting": "[5]; injected, at the most effective dose, FIG. 2", "value": "around 100 counts per min"},
      {"measurement": "Cocaine-like subjective effects (substitution for cocaine)", "setting": "[6]", "value": "lacks cocaine-like subjective effects; also recorded: did not substitute for cocaine"}
    ]}
  ]
}
